Test results as given in patent publication US10176292B2, “STING crystals and modulators” (MEMORIAL SLOAN-KETTERING CANCER CENTER, priority 2013, dated 2019).

Key:
hSTING^R232 = target: T1, hSTING^R232 (Homo sapiens, UniProt Q86WV6, H232R); assay: IFN-β luciferase reporter, HEK293T cells with hSTING (hSTING^R232); assay type: cell-based; conditions: DMXAA added to medium, 12 h
T1 construct: Full-length hSTING (wt and substitutions) and mSTING (wt) constructs were used for this cellular assay; expressed in transfected cells; host or cells: HEK293T
Protocol: Luciferase expression was determined after 12 h. […] Cells were lysed in Passive Lysis Buffer.
(§1) Luciferase assays for DMXAA experiments were performed as described above. Briefly, 3×10^4 293T cells were reverse-transfected with STING constructs (5 ng per 96-well) and reporter constructs (50 ng pIFNβ-Gluc, 10 ng pLenti-EF1-Fluc for normalization, 35 ng pMAX-empty as stuffer, delivered with TransIT-LT1, MirusBio, Madison Wis.). […] 12 hours after stimulation with STING-ligands, cells were resuspended in passive lysis buffer and luciferase activity was determined using the respective substrates Coelenterazine and D-Luciferin (PJK, Kleinblittersdorf, Germany). Gaussia Luciferase values were then normalized to constitutive Firefly Luciferase values (resulting in Relative Light Units, RLU).

hSTING^Q266I = target: T2, hSTING^Q266I (Homo sapiens, UniProt Q86WV6, H232R/Q266I); assay: IFN-β luciferase reporter, hSTING Q266I; assay type: cell-based; conditions: 0.18 mM DMXAA, 12 hours
T2 construct: Full-length hSTING (wt and substitutions) and mSTING (wt) constructs were used for this cellular assay; expressed in transfected cells; host or cells: 293T
Protocol: as §1

hSTING G166S = target: T3, hSTING G166S (Homo sapiens, UniProt Q86WV6, G166S/H232R); assay: IFN-β luciferase reporter, hSTING G166S; assay type: cell-based; conditions: 0.18 mM DMXAA, 12 hours
T3 construct: Full-length hSTING (wt and substitutions) and mSTING (wt) constructs were used for this cellular assay; expressed in transfected cells; host or cells: 293T
Protocol: as §1

hSTING Q266V = target: T4, hSTING Q266V (Homo sapiens, UniProt Q86WV6, H232R/Q266V); assay: IFN-β luciferase reporter, hSTING Q266V; assay type: cell-based; conditions: 0.18 mM DMXAA, 12 hours
T4 construct: Full-length hSTING (wt and substitutions) and mSTING (wt) constructs were used for this cellular assay; expressed in transfected cells; host or cells: 293T
Protocol: as §1

wt hSTING = target: T5, wt hSTING (Homo sapiens, UniProt Q86WV6, H232R); assay: Real-time PCR in STING^Gt/Gt BMDCs transduced with wt hSTING; assay type: cell-based; conditions: 50 μg/ml DMXAA, 3 hours
T5 construct: expressed in transfected cells; host or cells: bone marrow-derived dendritic cells of STING^Gt/Gt mice, retroviral transduction (pQCXIP-HA)
Protocol: (§2) The protocol for generation of bone marrow-derived dendritic cells was described before (Dai et al., 2014). […] BMDCs (1×10^6 cells/well) were infected with retroviruses expressing hSTING (wt and various substitution mutants).
(§3) hSTING cDNAs were cloned into pQCXIP-HA vector. In vitro packaging system was used to generate retroviruses according to protocol (Clontech). BMDCs (1×10^6 cells/well) were seeded into 6-well plates and infected with retroviruses. […] CXCL10 protein level was determined by ELISA.

hSTING^G230I [1] = target: T6, hSTING^G230I (Homo sapiens, UniProt Q86WV6, G230I/H232R); assay: Real-time PCR in STING^Gt/Gt BMDCs transduced with hSTING^G230I; assay type: cell-based; conditions: 50 μg/ml DMXAA, 3 hours
Protocol: as §2, §3

hSTING^S162A/G230I/Q266I = hSTING^S162A/G230I/Q266I (Homo sapiens, UniProt Q86WV6, G230I/H232R/Q266I/S162A); assay: Real-time PCR in STING^Gt/Gt BMDCs transduced with hSTING^S162A/G230I/Q266I; assay type: cell-based; conditions: 50 μg/ml DMXAA, 3 hours
Protocol: as §2, §3

[2] = target: T7, hSTING^S162A/Q266I (aa 155-341) (Homo sapiens, UniProt Q86WV6, H232R/Q266I/S162A); assay: X-ray crystal structure of DMXAA-hSTING^S162A/Q266I complex (Table 8 coordinates); conditions: X-ray refinement (PHENIX) of DMXAA-hSTING^S162A/Q266I complex
T7 construct: His6-SUMO (N, cleaved yes); made in house; host or cells: E. coli BL21 (DE3) RIL, modified pRSFDuet-1 vector
Protocol: The crystals were generated by sitting drop vapor diffusion method at 20° C., by mixing equal volume reservoir solution with the sample. The detailed conditions are listed below: DMXAA-hSTING^group2: 2 M LiCl, 10% PEG6000, 0.01 M CaCl2, 0.1 M Tris, pH 7.8; DMXAA-hSTING^G230I: 0.2 M Li2SO4, 20% PEG 3350, 0.015 mM CYMAL®-7, 0.1 M Tris, pH 8.1; DMXAA-hSTING^S162A/Q266I: 0.2 M Ca(Ac)2, 15% PEG3000, 0.01 M L-Proline, 0.1 M NaAc, pH 5.1; DMXAA-hSTING^S162A/G230I/Q266I: 0.2 M Ca(Ac)2, 15% PEG3000, 0.1 M LiCl, 0.1 M NaAc, pH 5.1. All structures were solved using PHASER, COOT, PHENIX, and REFMAC programs.
(PDB: 4F5D) as the search model. […] For the cGAMP-STING binary structures, two STING molecules in the STING dimer have equal probability to bind with either G or A moiety of the cGAMP isomers. […] We therefore assigned two conformations with 0.5 occupancy for bound cGAMP isomers.
(PDB: 4LOH) as the search model.
The model building was conducted using the program COOT (Emsley et al., 2010) and structural refinement was conducted using the program REFMAC (Murshudov et al., 1997).

[3] = tested on: hSTING^group1 (aa 140-379); assay: ITC binding, hSTING^group1; conditions: isolated group1 substitutions
hSTING^group3 = assay: ITC binding, hSTING^group3; conditions: isolated group3 substitutions
hSTING^group4 = assay: ITC binding, hSTING^group4; conditions: isolated group4 substitutions
hSTING^R232/V162 = hSTING^R232/V162 (Homo sapiens, UniProt Q86WV6, H232R/S162V); assay: ITC binding, hSTING^R232/V162; conditions: Protein: 0.08 mM; Ligands: 0.8 mM; 180 mM NaCl, pH 7.5; 25° C.
hSTING^H232/V162 = hSTING^H232/V162 (Homo sapiens, UniProt Q86WV6, S162V); assay: ITC binding, hSTING^H232/V162; conditions: Protein: 0.08 mM; Ligands: 0.8 mM; 180 mM NaCl, pH 7.5; 25° C.
hSTING^G230I [4] = target: T6, hSTING^G230I; assay: IFN-β luciferase reporter, hSTING^G230I; assay type: cell-based; set-up: Full-length hSTING (wt and substitutions) and mSTING (wt) constructs were used for this cellular assay; expressed in transfected cells; host or cells: 293T; conditions: ascending concentrations of DMXAA, 12 hours
Protocol: as §1

T7 sequence (Q86WV6 155-341 S162A/H232R/Q266I): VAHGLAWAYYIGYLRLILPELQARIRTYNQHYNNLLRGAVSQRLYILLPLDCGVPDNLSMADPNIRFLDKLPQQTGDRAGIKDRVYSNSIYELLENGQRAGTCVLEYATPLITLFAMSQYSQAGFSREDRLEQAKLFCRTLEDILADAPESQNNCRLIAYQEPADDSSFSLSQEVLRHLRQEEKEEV
hSTING^H232/V162, sequence (Q86WV6 140-379 S162V): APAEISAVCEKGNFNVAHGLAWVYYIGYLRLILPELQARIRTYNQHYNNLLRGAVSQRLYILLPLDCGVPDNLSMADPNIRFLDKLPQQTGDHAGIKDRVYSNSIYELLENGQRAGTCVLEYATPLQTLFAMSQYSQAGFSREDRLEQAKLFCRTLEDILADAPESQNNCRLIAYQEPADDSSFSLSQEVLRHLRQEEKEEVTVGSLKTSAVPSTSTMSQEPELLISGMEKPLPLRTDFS
hSTING^R232/V162, sequence (Q86WV6 140-379 S162V/H232R): as the sequence (Q86WV6 140-379 S162V) above, with H93R counted along it
T6 sequence (Q86WV6 whole entry G230I/H232R): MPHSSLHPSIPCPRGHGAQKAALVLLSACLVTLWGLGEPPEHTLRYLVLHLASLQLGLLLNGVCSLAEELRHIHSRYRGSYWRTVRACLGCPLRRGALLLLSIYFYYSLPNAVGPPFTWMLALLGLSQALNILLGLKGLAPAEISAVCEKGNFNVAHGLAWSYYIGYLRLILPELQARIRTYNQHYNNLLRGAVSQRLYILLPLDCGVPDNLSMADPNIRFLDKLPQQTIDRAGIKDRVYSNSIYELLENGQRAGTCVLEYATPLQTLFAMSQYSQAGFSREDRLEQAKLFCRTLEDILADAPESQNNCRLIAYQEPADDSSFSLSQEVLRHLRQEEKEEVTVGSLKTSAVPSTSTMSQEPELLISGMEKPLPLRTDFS
hSTING^S162A/G230I/Q266I, sequence (Q86WV6 whole entry S162A/G230I/H232R/Q266I): as the sequence (Q86WV6 whole entry G230I/H232R) above, with S162A, Q266I counted along it
T3 sequence (Q86WV6 whole entry G166S/H232R): as the sequence (Q86WV6 whole entry G230I/H232R) above, with G166S, I230G counted along it
T1 sequence (Q86WV6 whole entry H232R): as the sequence (Q86WV6 whole entry G230I/H232R) above, with I230G counted along it
T5 sequence (Q86WV6 whole entry H232R): as the sequence (Q86WV6 whole entry G230I/H232R) above, with I230G counted along it
T4 sequence (Q86WV6 whole entry H232R/Q266V): as the sequence (Q86WV6 whole entry G230I/H232R) above, with I230G, Q266V counted along it
T2 sequence (Q86WV6 whole entry H232R/Q266I): as the sequence (Q86WV6 whole entry G230I/H232R) above, with I230G, Q266I counted along it

IFN-β luciferase reporter response to DMXAA (hSTING^R232): did not | DMXAA-mediated IFN-β induction (hSTING G166S): no effects | DMXAA-mediated IFN-β induction (hSTING Q266V): no effects | up-regulation of IFN-β mRNA after DMXAA treatment (wt hSTING): did not induce the up-regulation | increases in IFN-β mRNA levels (hSTING^G230I [1]): 2.6 fold | increases in IFN-β mRNA levels (hSTING^S162A/G230I/Q266I): 4.2 fold | FREE R VALUE [2]: REMARK 3 FREE R VALUE: 0.2288 | R VALUE (WORKING SET) [2]: REMARK 3 R VALUE (WORKING SET): 0.1826 | binding to DMXAA (ITC) [3]: no detectable binding | binding to DMXAA (ITC) (hSTING^group3): no detectable binding | binding to DMXAA (ITC) (hSTING^group4): no detectable binding | TΔS (hSTING^R232/V162): +7.93 Kcal/mol | ΔG (hSTING^R232/V162): -7.61 kcal/mol | ΔH (hSTING^R232/V162): +0.32 Kcal/mol | TΔS (hSTING^H232/V162): +7.84 Kcal/mol | ΔG (hSTING^H232/V162): -7.45 kcal/mol | ΔH (hSTING^H232/V162): +0.39 Kcal/mol
Compound: Cc1ccc2c(=O)c3cccc(CC(=O)O)c3oc2c1C [DMXAA, 5,6-dimethylxanthenone-4-acetic acid]
DMXAA-mediated IFN-β induction (hSTING^Q266I): conferred DMXAA sensitivity at a level similar to that observed for the S162A substitution | up-regulation of CXCL10, CCL5 and IL-6 mRNAs (hSTING^S162A/G230I/Q266I): strongest induction among the four mutants | RESOLUTION RANGE HIGH (ANGSTROMS) [2]: REMARK 3 RESOLUTION RANGE HIGH (ANGSTROMS): 2.420 | IFN-β induction activity (luciferase), DMXAA (hSTING^G230I [4]): almost identical IFN-β induction as hSTING^group2
